In paper PMC4744035, “In Vivo, In Vitro, and In Silico Characterization of Peptoids as Antimicrobial Agents” (PLoS ONE, 2016):
≈ marks a conversion by molar mass, not a printed value. Numbered stars: 1 amine (or outer) side, 2 acyl side, 3 side chain; on linkers, the order of the positions; unused ones are H or OH. Square brackets hold non-standard residues; d marks the D form. Peptide text beside a SMILES is read from it. X1 = CC(C)[C@H](C)N(CC(=O)[*:2])[*:1]; Nspe = C[C@H](NCC(=O)O)c1ccccc1; Nlys = NCCCCNCC(=O)O

Tests used:
NIH 3T3 cells = experiment: Metabolic activity, MTS assay; format: cell-based, mouse
Procedure: NIH 3T3 mouse fibroblast cells were cultured in complete Dulbecco’s Modified Eagle’s Media. A peptoid solution plate (100 µL per well) was prepared by serial dilution of aqueous peptoid stock solutions in Hank’s balanced salt solution. A day-old cell monolayer was washed thoroughly with Hank’s balanced salt solution and replenished with 100 µL Hank’s balanced salt solution per well. Peptoid solutions were transferred onto the day-old cell monolayers, which contained approximately 5000 cells per well. […] The average of six replicate trials is reported.

E. coli 64771 (ESBL) = experiment: microbe, parasite or virus in culture; details: 64771 (ESBL)
How it was run: (§1)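 Modified broth microdilution in Mueller Hinton medium in polypropylene plates; test agents serially diluted in 0.01% acetic acid with 0.2% BSA at 10-fold final concentration.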

[1] = system: E. cloacae 218R Class C β-lactamase; experiment: microbe, parasite or virus in culture; details: 218R Class C β-lactamase
How it was run: as §1

[2] = system: P. aeruginosa H1030 (MDR); experiment: microbe, parasite or virus in culture; details: P. aeruginosa H1030 (MDR)
How it was run: as §1

E. faecalis ATCC29212 = experiment: microbe, parasite or virus in culture; details: ATCC29212
How it was run: as §1

[3] = system: K. pneumonia 61962 (ESBL); experiment: microbe, parasite or virus in culture
How it was run: as §1

S. aureus C623 (MRSA) = experiment: microbe, parasite or virus in culture; details: C623
How it was run: as §1

[4] = system: P. aeruginosa LES400 (MDR); experiment: microbe, parasite or virus in culture; details: LES400 (MDR)
How it was run: as §1

P. aeruginosa 9 (MDR) = experiment: microbe, parasite or virus in culture; details: 9 (MDR)
How it was run: as §1

S. aureus ATCC25923 = experiment: microbe, parasite or virus in culture; details: ATCC25923
How it was run: as §1

[5] = system: K. pneumonia 63575 (ESBL); experiment: microbe, parasite or virus in culture
How it was run: as §1

[6] = system: P. aeruginosa H103 (wild type); experiment: microbe, parasite or virus in culture; details: H103 (wild type)
How it was run: as §1

E. coli 63103 (ESBL) = experiment: microbe, parasite or virus in culture; details: 63103 (ESBL)
How it was run: as §1

E. faecium T62764 (VRE) = experiment: microbe, parasite or virus in culture; details: T62764 (VRE)
How it was run: as §1

[7] = system: P. aeruginosa H1027 (MDR); experiment: microbe, parasite or virus in culture; details: H1027 (MDR)
How it was run: as §1

P. aeruginosa 213 (MDR) = experiment: microbe, parasite or virus in culture; details: 213 (MDR)
How it was run: as §1

E. faecalis W61950 (VRE) = experiment: microbe, parasite or virus in culture; details: W61950 (VRE)
How it was run: as §1

P. aeruginosa 198 (MDR) = experiment: microbe, parasite or virus in culture; details: 198 (MDR)
How it was run: as §1

E. faecalis F43559 (VRE) = experiment: microbe, parasite or virus in culture; details: F43559 (VRE)
How it was run: as §1

E. faecium mic80 (VRE) = experiment: microbe, parasite or virus in culture; details: mic80 (VRE)
How it was run: as §1

P. maltophilia ATCC13637 = experiment: microbe, parasite or virus in culture; details: ATCC13637
How it was run: as §1

erythrocytes = experiment: Hemolytic activity (HD10/HD50); format: cell-based
Text: Table 1 Characteristics of antimicrobial peptoids, screened for activity against B. subtilis and E. coli bacterial strains. | column: HD10 / HD50

E. coli ATCC 35218 = format: cell-based
How it was run: (§2)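 MICs determined by 2:1 serial broth microdilution in cation-adjusted Mueller-Hinton broth per CLSI M7-A6, using inoculum at 1 x 10^6 CFU/mL mixed 1:1 with peptoid solution. Three independent replicates, each with two parallel trials.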

B. subtilis ATCC 6633 = format: cell-based
How it was run: as §2

Row | Compound | ID50 (inhibitory dose, metabolic activity) (NIH 3T3 cells) [µM] | MIC (E. coli 64771 (ESBL)) [µg/mL] | MIC [1] [µg/mL] | MIC [2] [µg/mL] | MIC (E. faecalis ATCC29212) [µg/mL] | MIC [3] [µg/mL] | MIC (S. aureus C623 (MRSA)) [µg/mL] | MIC [4] [µg/mL] | MIC (P. aeruginosa 9 (MDR)) [µg/mL] | MIC (S. aureus ATCC25923) [µg/mL] | MIC [5] [µg/mL] | MIC [6] [µg/mL] | MIC (E. coli 63103 (ESBL)) [µg/mL] | MIC (E. faecium T62764 (VRE)) [µg/mL] | MIC [7] [µg/mL] | MIC (P. aeruginosa 213 (MDR)) [µg/mL] | MIC (E. faecalis W61950 (VRE)) [µg/mL] | MIC (P. aeruginosa 198 (MDR)) [µg/mL] | MIC (E. faecalis F43559 (VRE)) [µg/mL] | MIC E. coli (E. coli ATCC 35218) [µM] | further results
1 | CC(C)[C@H](C)N(CC(=O)N(CCCCN)CC(=O)N(CC(=O)N(CC(=O)N(CCCCN)CC(=O)N(CC(=O)N(CC(=O)N(CCCCN)CC(=O)N(CC(=O)N(CC(N)=O)[C@@H](C)c1ccccc1)[C@@H](C)c1ccccc1)[C@@H](C)C(C)C)[C@@H](C)C(C)C)[C@@H](C)c1ccccc1)[C@@H](C)c1ccccc1)C(=O)CN(C(=O)CNCCCCN)[C@@H](C)C(C)C [1-Nsdp2,3,8,9, H-(NLys-Nsdp-Nsdp-NLys-Nspe-Nspe)2-NH2] (H-[Nlys][X1][X1][Nlys][Nspe][Nspe][Nlys][X1][X1][Nlys][Nspe][Nspe]-NH2) | 19 | 8 (≈ 4.75 µM) | 8 (≈ 4.75 µM) | 8 (≈ 4.75 µM) | 4 (≈ 2.38 µM) | 32 (≈ 19 µM) | 4 (≈ 2.38 µM) | 8 (≈ 4.75 µM) | 256 (≈ 152 µM) | 4 (≈ 2.38 µM) | 32 (≈ 19 µM) | 8 (≈ 4.75 µM) | 16 (≈ 9.51 µM) | 1 (≈ 0.594 µM) | 2 (≈ 1.19 µM) | 8 (≈ 4.75 µM) | 16 (≈ 9.51 µM) | 32 (≈ 19 µM) | 16 (≈ 9.51 µM) | 12.5 (≈ 21 µg/mL) | MIC (E. faecium mic80 (VRE)): 4 µg/mL (≈ 2.38 µM); MIC (P. maltophilia ATCC13637): 1 µg/mL (≈ 0.594 µM); HD10 (hemolytic activity) (erythrocytes): 77; HD50 (hemolytic activity) (erythrocytes): > 200
2 | C[C@@H](c1ccccc1)N(CC(N)=O)C(=O)CN(C(=O)CN(CCCCN)C(=O)CN(C(=O)CN(C(=O)CN(CCCCN)C(=O)[C@@H]1CCCN1C(=O)CN(C(=O)CN(CCCCN)C(=O)CN(C(=O)CN(C(=O)CNCCCCN)[C@@H](C)c1ccccc1)[C@@H](C)c1ccccc1)[C@@H](C)c1ccccc1)[C@@H](C)c1ccccc1)[C@@H](C)c1ccccc1)[C@@H](C)c1ccccc1 [Peptoid 1-Pro6, H-NLys-Nspe2-NLys-Nspe-L-Pro-(NLys-Nspe2)2-NH2] (H-[Nlys][Nspe][Nspe][Nlys][Nspe]P[Nlys][Nspe][Nspe][Nlys][Nspe][Nspe]-NH2) | 18 | 8 (≈ 4.56 µM) | 16 (≈ 9.12 µM) | 16 (≈ 9.12 µM) | 8 (≈ 4.56 µM) | 64 (≈ 36.5 µM) | 8 (≈ 4.56 µM) | 8 (≈ 4.56 µM) | 256 (≈ 146 µM) | 4 (≈ 2.28 µM) | 32 (≈ 18.2 µM) | 8 (≈ 4.56 µM) | 16 (≈ 9.12 µM) | 1 (≈ 0.57 µM) | 4 (≈ 2.28 µM) | 16 (≈ 9.12 µM) | 32 (≈ 18.2 µM) | 16 (≈ 9.12 µM) | 8 (≈ 4.56 µM) | 12.5 (≈ 21.9 µg/mL) | MIC (E. faecium mic80 (VRE)): 8 µg/mL (≈ 4.56 µM); MIC (P. maltophilia ATCC13637): 2 µg/mL (≈ 1.14 µM); HD10 (hemolytic activity) (erythrocytes): 83; HD50 (hemolytic activity) (erythrocytes): > 200
3 | C[C@@H](c1ccccc1)N(CC(N)=O)C(=O)CN(Cc1ccccc1)C(=O)CN(CCCCN)C(=O)CN(Cc1ccccc1)C(=O)CN(Cc1ccccc1)C(=O)CN(CCCCN)C(=O)CN(Cc1ccccc1)C(=O)CN(Cc1ccccc1)C(=O)CN(CCCCN)C(=O)CN(Cc1ccccc1)C(=O)CN(Cc1ccccc1)C(=O)CNCCCCN [Peptoid 1ach-Nspe12, H-(NLys-Npm-Npm)3-(NLys-Npm-Nspe)-NH2] | 15 | 4 (≈ 2.32 µM) | 16 (≈ 9.3 µM) | 32 (≈ 18.6 µM) | 8 (≈ 4.65 µM) | 128 (≈ 74.4 µM) | 8 (≈ 4.65 µM) | 4 (≈ 2.32 µM) | 64 (≈ 37.2 µM) | 4 (≈ 2.32 µM) | 32 (≈ 18.6 µM) | 4 (≈ 2.32 µM) | 16 (≈ 9.3 µM) | 1 (≈ 0.581 µM) | 1 (≈ 0.581 µM) | 4 (≈ 2.32 µM) | 16 (≈ 9.3 µM) | 8 (≈ 4.65 µM) | 16 (≈ 9.3 µM) | 6.3 (≈ 10.8 µg/mL) | MIC (E. faecium mic80 (VRE)): 4 µg/mL (≈ 2.32 µM); MIC (P. maltophilia ATCC13637): 1 µg/mL (≈ 0.581 µM); HD10 (hemolytic activity) (erythrocytes): 164; HD50 (hemolytic activity) (erythrocytes): > 200
4 | C[C@H](NCC(=O)N(CC(=O)N(CCCCN)CC(=O)N(CC(=O)N(CCCCN)CC(=O)N(CC(=O)N(CCCCN)CC(=O)N(CC(=O)N(CC(=O)N(CC(=O)N(CC(=O)N(CCCCN)CC(N)=O)[C@@H](C)c1ccccc1)[C@@H](C)c1ccccc1)[C@@H](C)c1ccccc1)[C@@H](C)c1ccccc1)[C@@H](C)c1ccccc1)[C@@H](C)c1ccccc1)[C@@H](C)c1ccccc1)c1ccccc1 [Peptoid 1scr, H-(Nspe)2-(NLys-Nspe)3-(Nspe)3-NLys-NH2] (H-[Nspe][Nspe][Nlys][Nspe][Nlys][Nspe][Nlys][Nspe][Nspe][Nspe][Nspe][Nlys]-NH2) | 8.5 | 16 (≈ 8.79 µM) | 32 (≈ 17.6 µM) | 64 (≈ 35.2 µM) | 8 (≈ 4.4 µM) | 128 (≈ 70.4 µM) | 8 (≈ 4.4 µM) | 16 (≈ 8.79 µM) | 256 (≈ 141 µM) | 8 (≈ 4.4 µM) | 64 (≈ 35.2 µM) | 16 (≈ 8.79 µM) | 64 (≈ 35.2 µM) | 2 (≈ 1.1 µM) | 4 (≈ 2.2 µM) | 16 (≈ 8.79 µM) | 32 (≈ 17.6 µM) | 32 (≈ 17.6 µM) | 8 (≈ 4.4 µM) | 6.3 (≈ 11.5 µg/mL) | MIC (E. faecium mic80 (VRE)): 8 µg/mL (≈ 4.4 µM); MIC (P. maltophilia ATCC13637): 2 µg/mL (≈ 1.1 µM); HD10 (hemolytic activity) (erythrocytes): 64; HD50 (hemolytic activity) (erythrocytes): > 200
5 | H-(NLys-Nspe-Nspe)3-NH2 [Peptoid 1_9mer] | – | – | – | – | – | – | – | – | – | – | – | – | – | – | – | – | – | – | – | 25 | MIC B. subtilis (B. subtilis ATCC 6633): 1.6 µM
